Source: patent US20230203059A1, “MACROCYCLIC JAK INHIBITOR AND USES THEREOF” (Biopolar Hongye (Guangdong) Pharmaceutical Co. Ltd., priority 2020, published 2023)

Legend:
Type in all cases: biochemical
JAK1 = JAK1 (Homo sapiens, UniProt P23458); test: JAK kinase activity, homogeneous time-resolved fluorescence (JAK1 reaction system); conditions: ATP 2 μM, JAK1 protein 0.2 ng/μL; read-out: JAK 1 activity
Outline: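 HTRF assay: JAK1 (0.2 ng/μL) with 2 μM ATP and substrate in 50 mM Hepes pH 7.0, 5 mM MgCl2, 1 mM DTT, 1 h. Phospho-substrate antibody/XL-615 detection with EDTA; 665/615 nm ratio, excitation 320 nm. IC50 from Hill-type fit against no-enzyme and no-compound controls.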

JAK2 = JAK2 (Homo sapiens, UniProt O60674); test: JAK kinase activity, homogeneous time-resolved fluorescence (JAK2 reaction system); conditions: ATP 2 μM, JAK2 protein 0.01 ng/μL
Outline: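 IC50 derived by Hill-equation fit of the 665/615 nm time-resolved fluorescence ratio after EDTA-containing detection mix with anti-phosphosubstrate antibody. Preceding 1 h reaction contained 2 μM ATP, 0.01 ng/μL JAK2, substrate, 50 mM Hepes pH 7.0, 5 mM MgCl2, 1 mM DTT.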

JAK3 = target: T1, JAK3 (Homo sapiens, UniProt P52333); test: JAK kinase activity, homogeneous time-resolved fluorescence (JAK3 reaction system); conditions: ATP 2 μM, JAK3 protein 0.04 ng/μL; read-out: JAK 3 activity
T1 sequence (P52333 1-1124): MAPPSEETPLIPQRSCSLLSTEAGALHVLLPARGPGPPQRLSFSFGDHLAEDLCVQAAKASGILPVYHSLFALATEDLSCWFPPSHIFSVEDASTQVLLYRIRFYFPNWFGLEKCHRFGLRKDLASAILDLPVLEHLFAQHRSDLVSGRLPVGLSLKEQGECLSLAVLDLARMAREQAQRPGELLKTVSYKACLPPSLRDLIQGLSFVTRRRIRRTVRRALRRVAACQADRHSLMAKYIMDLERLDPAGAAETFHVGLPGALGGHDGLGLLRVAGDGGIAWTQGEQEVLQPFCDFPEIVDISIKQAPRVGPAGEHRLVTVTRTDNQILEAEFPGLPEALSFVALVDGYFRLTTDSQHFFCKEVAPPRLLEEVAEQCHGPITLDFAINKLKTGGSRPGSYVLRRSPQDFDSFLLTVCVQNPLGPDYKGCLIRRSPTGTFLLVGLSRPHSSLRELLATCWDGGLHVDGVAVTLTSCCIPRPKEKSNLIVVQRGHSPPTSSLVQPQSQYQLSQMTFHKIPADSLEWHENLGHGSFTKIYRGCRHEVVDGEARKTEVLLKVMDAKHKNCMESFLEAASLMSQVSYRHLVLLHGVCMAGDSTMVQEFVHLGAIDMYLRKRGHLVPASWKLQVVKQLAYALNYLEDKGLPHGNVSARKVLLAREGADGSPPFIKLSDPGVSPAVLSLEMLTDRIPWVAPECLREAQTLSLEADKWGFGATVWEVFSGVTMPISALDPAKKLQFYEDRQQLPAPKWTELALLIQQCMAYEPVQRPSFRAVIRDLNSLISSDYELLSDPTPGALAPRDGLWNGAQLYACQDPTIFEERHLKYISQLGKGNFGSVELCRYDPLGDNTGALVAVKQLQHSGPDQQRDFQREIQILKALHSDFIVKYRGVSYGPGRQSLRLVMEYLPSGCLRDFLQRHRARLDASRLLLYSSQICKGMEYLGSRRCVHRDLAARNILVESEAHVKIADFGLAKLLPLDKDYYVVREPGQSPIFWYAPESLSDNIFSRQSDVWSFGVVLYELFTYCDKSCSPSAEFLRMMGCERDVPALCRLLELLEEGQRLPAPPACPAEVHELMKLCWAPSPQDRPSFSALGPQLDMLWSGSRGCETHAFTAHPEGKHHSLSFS

TYK2 = TYK2 (Homo sapiens, UniProt P29597); test: JAK kinase activity, homogeneous time-resolved fluorescence (TYK2 reaction system); conditions: ATP 2 μM, TYK2 protein 0.2 ng/μL; read-out: TYK 2 activity
Outline: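 Activity read as the 665 nm/615 nm ratio after adding EDTA-containing detection mix with anti-phospho-substrate antibody and XL-615. Beforehand, 0.2 ng/μL TYK2, 2 μM ATP, substrate and compound reacted 1 h in pH 7.0 Hepes buffer with MgCl2 and DTT. IC50 fitted with Hill-slope equation.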

JAK2, sequence (O60674 whole entry): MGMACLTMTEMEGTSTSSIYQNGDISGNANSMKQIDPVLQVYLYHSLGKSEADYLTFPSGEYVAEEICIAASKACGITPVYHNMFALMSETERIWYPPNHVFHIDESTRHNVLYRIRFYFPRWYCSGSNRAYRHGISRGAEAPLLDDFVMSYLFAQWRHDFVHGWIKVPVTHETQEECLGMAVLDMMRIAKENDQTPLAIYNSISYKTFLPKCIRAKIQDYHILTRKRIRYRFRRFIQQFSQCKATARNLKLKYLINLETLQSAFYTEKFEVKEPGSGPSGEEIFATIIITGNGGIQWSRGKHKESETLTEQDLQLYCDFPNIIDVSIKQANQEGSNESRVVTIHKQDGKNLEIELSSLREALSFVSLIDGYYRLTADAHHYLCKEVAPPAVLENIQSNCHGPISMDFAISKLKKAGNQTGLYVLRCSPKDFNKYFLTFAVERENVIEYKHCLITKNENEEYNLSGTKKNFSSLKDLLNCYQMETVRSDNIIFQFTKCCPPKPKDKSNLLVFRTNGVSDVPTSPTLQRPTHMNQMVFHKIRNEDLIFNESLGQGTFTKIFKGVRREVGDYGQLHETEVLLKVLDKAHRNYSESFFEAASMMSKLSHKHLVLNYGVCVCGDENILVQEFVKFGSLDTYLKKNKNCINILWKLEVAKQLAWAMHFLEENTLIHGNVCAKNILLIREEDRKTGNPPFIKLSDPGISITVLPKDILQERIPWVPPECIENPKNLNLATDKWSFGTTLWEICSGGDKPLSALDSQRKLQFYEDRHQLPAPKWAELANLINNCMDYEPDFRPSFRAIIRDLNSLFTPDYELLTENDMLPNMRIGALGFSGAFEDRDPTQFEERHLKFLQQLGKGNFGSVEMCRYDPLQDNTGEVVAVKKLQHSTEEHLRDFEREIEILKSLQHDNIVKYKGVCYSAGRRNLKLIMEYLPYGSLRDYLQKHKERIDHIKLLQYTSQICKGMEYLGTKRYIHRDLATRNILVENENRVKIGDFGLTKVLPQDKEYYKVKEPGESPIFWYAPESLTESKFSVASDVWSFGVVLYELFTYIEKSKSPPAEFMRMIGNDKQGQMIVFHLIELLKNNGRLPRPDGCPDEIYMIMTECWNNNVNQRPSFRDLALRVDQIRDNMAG
JAK1, sequence (P23458 whole entry): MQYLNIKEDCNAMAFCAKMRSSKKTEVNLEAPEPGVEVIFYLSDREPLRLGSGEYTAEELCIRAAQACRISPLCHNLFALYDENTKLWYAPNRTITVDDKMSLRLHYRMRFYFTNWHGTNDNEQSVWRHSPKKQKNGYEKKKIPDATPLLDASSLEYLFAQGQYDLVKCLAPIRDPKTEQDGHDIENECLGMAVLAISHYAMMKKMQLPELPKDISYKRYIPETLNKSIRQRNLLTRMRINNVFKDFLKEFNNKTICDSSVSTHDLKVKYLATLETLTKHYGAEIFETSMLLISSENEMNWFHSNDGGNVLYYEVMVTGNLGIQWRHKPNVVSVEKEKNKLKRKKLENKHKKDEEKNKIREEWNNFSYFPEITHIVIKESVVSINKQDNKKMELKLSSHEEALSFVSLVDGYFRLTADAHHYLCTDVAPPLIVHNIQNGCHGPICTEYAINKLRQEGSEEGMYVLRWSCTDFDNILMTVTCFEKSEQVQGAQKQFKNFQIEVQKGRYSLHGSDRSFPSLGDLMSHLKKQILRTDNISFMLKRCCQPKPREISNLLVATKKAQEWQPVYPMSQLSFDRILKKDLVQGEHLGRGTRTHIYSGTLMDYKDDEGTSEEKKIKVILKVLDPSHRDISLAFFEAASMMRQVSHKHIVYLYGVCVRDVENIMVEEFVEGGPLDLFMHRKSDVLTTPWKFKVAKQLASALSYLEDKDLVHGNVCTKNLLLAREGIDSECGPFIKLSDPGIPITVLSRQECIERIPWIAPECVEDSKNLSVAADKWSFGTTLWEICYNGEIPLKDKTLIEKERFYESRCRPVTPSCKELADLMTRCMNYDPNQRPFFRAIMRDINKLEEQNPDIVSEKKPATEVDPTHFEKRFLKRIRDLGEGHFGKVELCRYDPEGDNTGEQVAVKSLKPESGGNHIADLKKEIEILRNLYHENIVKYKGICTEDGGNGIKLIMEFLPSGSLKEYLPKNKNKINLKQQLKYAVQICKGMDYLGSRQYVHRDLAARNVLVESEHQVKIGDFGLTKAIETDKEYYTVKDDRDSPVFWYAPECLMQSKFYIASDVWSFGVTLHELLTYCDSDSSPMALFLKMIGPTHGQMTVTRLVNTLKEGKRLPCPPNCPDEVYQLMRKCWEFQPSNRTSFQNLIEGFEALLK
TYK2, sequence (P29597 whole entry): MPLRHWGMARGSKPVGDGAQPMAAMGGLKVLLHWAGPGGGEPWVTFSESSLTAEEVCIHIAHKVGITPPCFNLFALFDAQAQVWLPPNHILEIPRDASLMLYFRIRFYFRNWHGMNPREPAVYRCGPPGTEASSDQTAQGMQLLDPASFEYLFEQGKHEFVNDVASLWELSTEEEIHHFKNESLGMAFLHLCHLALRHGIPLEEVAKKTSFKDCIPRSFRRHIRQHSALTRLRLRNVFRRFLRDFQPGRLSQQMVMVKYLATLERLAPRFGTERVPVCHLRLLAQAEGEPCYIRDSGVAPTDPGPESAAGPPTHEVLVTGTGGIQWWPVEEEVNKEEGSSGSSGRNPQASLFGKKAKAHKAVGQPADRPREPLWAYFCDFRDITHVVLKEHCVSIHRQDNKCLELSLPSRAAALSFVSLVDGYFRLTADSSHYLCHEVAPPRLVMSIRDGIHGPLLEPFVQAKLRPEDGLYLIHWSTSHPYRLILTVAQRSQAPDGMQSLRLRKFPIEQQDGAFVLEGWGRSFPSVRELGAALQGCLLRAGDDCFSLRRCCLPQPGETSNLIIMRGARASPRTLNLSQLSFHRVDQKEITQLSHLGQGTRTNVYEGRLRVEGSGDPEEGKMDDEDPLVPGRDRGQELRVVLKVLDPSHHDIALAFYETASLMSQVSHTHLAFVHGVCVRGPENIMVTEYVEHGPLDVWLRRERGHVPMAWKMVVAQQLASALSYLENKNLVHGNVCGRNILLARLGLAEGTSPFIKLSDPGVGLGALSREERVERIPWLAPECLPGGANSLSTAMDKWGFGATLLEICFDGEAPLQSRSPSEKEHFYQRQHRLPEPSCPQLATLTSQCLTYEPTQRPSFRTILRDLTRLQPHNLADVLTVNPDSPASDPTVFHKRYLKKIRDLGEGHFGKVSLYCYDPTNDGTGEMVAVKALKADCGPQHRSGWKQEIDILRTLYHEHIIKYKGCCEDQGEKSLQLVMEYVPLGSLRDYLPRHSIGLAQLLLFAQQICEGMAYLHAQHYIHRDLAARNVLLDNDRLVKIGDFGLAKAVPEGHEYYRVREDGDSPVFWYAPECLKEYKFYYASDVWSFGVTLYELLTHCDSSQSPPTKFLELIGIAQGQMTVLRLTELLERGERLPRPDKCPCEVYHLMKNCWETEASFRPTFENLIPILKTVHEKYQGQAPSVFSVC

SMILES | IC50 (JAK1) [µM] | IC50 (JAK2) [µM] | IC50 (JAK3) [µM] | IC50 (TYK2) [µM]
CC1CCOCc2cc(ccc2OC2CCCOC2)Nc2nccc(n2)-c2ccc(cc2[N+](=O)[O-])C(=O)NC1 (stereo not shown) [Example 162, 9-methyl-1^2-nitro-4^4-((tetrahydro-2H-pyran-3-yl)oxy)-6-oxa-3,11-di-aza-2(4,2)-pyrimidina-1(1,4),4(1,3)-dibenzenacyclododecaphan-12-one] | 1 to 10 | 0.101 to 1 | 0.101 to 1 | 1 to 10
CC1CCNC(=O)c2ccc(c(N)c2)-c2ccnc(n2)Nc2ccc(OC3CCCOC3)c(c2)COC1 (stereo not shown) [Example 138] | 1 to 10 | 0.101 to 1 | < 0.01 | 1 to 10
CNc1cc2ccc1-c1ccnc(n1)Nc1ccc(OC3CC3)c(c1)COCCCCNC2=O [Example 82, 4^4-cyclopropoxy-1^2-methylamino-6-oxa-3,11-diaza-2(4,2)-pyrimidina-1(1,4),4(1,3)-dibenzenacyclododeca-phan-12-one] | 1 to 10 | 1 to 10 | 1 to 10 | > 10
Nc1cc2ccc1-c1ccnc(n1)Nc1cc(F)c(F)c(c1)COCCCCNC2=O [Example 94, 1^2-amino-4^4,4^5-difluoro-6-oxa-3,11-diaza-2(4,2)-pyrimidina-1(1,4),4(1,3)-dibenzenacyclododecaphan-12-one] | 1 to 10 | 1 to 10 | 0.011 to 0.1 | > 10
O=C1NCCCCOCc2cc(ccc2Cl)Nc2nccc(n2)-c2ccc1cc2F [Example 20, 4^4-chloro-1^2-fluoro-6-oxa-3,11-diaza-2(4,2)-pyrimidina-1(1,4),4(1,3)-di-benzenacyclododecaphan-12-one] | 0.101 to 1 | 0.101 to 1 | 0.011 to 0.1 | 1 to 10
CN(C)c1ccc2cc1COCCCCNC(=O)c1ccc(c(F)c1)-c1ccnc(n1)N2 [Example 28, 1^2-fluoro-4^4-dimethylamino-6-oxa-3,11-diaza-2(4,2)-pyrimidina-1(1,4),4(1,3)-dibenzenacyclododecaphan-12-one] | 0.101 to 1 | 0.011 to 0.1 | 0.011 to 0.1 | 0.101 to 1
Nc1cc2ccc1-c1ccnc(n1)Nc1ccc(OCc3cccc4c3OCC4)c(c1)COCCCCNC2=O [Example 148, 1^2-amino-4^4-((2,3-dihydrobenzofu-ran-7-yl)methoxy)-6-oxa-3,11-dia-za-2(4,2)-pyrimidina-1(1,4),4(1,3)-dibenzenacyclododecaphan-12-one] | 1 to 10 | 0.101 to 1 | < 0.01 | > 10
Nc1cc2ccc1-c1ccnc(n1)Nc1ccc(OC3COC3)c(c1)COCCCCNC2=O [Example 75, 1^2-amino-4^4-(oxetan-3-oxy)-6-oxa-3,11-diaza-2(4,2)-pyrimidina-1(1,4),4(1,3)-dibenzenacyclododecaphan-12-one] | 1 to 10 | 0.101 to 1 | 0.011 to 0.1 | 1 to 10
O=C1NCCCCOCc2cc(ccc2OC2CCC2)Nc2nccc(n2)-c2ccc1cc2[N+](=O)[O-] [Example 71, 4^4-cyclobutoxy-1^2-nitro-6-oxa-3,11-diaza-2(4,2)-pyrimidina-1(1,4),4(1,3)-dibenzenacyclododecaphan-12-one] | > 10 | > 10 | 1 to 10 | > 10
CC1CCNC(=O)c2ccc(c([N+](=O)[O-])c2)-c2ccnc(n2)Nc2ccc(OCC3COC3)c(c2)COC1 (stereo not shown) [Example 174, 8-methyl-1^2-nitro-4^4-(oxetan-3-yl-methoxy)-6-oxa-3-diaza-2(4,2)-py-rimidina-1(1,4),4(1,3)-dibenzena-cyclododecaphan-12-one] | 1 to 10 | 1 to 10 | 1 to 10 | > 10
Nc1cc2ccc1-c1ccnc(n1)Nc1ccc(OCc3cccc4c3COC4)c(c1)COCCCCNC2=O [Example 160, 1^2-amino-4^4-((1,3-dihydroisobenzo-furan-4-yl)methoxy)-6-oxa-3,11-diaza-2(4,2)-pyrimidina-1(1,4),4(1,3)-dibenzenacyclododecaphan-12-one] | 1 to 10 | 0.101 to 1 | 0.011 to 0.1 | 1 to 10
COc1cc(F)cc(F)c1COc1ccc2cc1COCC[C@H](C)CNC(=O)c1ccc(c(N)c1)-c1ccnc(n1)N2 [Example 191, (S)-1^2-amino-4^4-((2,4-difluoro-6-methoxybenzyl)oxy)-9-methyl-6-x-xa-3,11-diaza-2(4,2)-pyrimidina-1(1,4),4(1,3)-dibenzenacyclo-dodecaphan-12-one] | 1 to 10 | 1 to 10 | 0.101 to 1 | 1 to 10
CC(C)Oc1ccc2cc1COCCCCNC(=O)c1ccc(c([N+](=O)[O-])c1)-c1ccnc(n1)N2 [Example 64, 4^4-isopropoxy-1^2-nitro-6-oxa-3,11-diaza-2(4,2)-pyrimidina-1(1,4),4(1,3)-dibenzenacyclododecaphan-12-one] | 1 to 10 | 0.101 to 1 | 0.101 to 1 | > 10
O=C1NCCCCOCc2cc(ccc2N2CCOCC2)Nc2nccc(n2)-c2ccc1cc2F [Example 4, 1^2-fluoro-4^4-morpholin-6-oxa-3,11-diaza-2(4,2)-pyrimidina-1(1,4),4(1,3)-dibenzenacyclododecaphan-12-one] | 1 to 10 | 0.101 to 1 | 0.011 to 0.1 | 0.101 to 1
CC1CCOCc2cc(ccc2OCC2CCOC2)Nc2nccc(n2)-c2ccc(cc2N)C(=O)NC1 (stereo not shown) [Example 167, 1-amino-9-methyl-4^4-((tetahydro-furan-3-yl)methoxy)-6-oxa-3,11-diaza-2(4,2)-pyrimidina-1(1,4),4(1,3)-dibenzenacyclododecaphan-12-one] | 0.101 to 1 | 0.101 to 1 | < 0.01 | 0.101 to 1
CC(C)Oc1ccc2cc1COc1ccc(cc1)NC(=O)c1ccc(c(N)c1)-c1ccnc(n1)N2 [Example 198, 1^2-amino-4^4-isopropoxy-6-oxa-3,8-diaza-2(4,2)-pyrimidina-1,7(1,4),4(1,3)-tribenzenacyclononaphane-9-one] | 1 to 10 | 0.101 to 1 | 0.011 to 0.1 | 1 to 10
O=C1NCCCCOCc2cc(cc(N3CCSCC3)c2)Nc2nccc(n2)-c2ccc1cc2[N+](=O)[O-] [Example 76, 1^2-nitro-4^5-thiomorpholin-6-oxa-3,11-diaza-2(4,2)-pyrimidina-1(1,4),4(1,3)-dibenzenacyclododecaphan-12-one] | 1 to 10 | 0.101 to 1 | 0.101 to 1 | > 10
CC1CCOCc2cc(ccc2OC2CC2)Nc2nccc(n2)-c2ccc(cc2N)C(=O)NC1 (stereo not shown) [Example 157, 1^2-amino-4^4-cyclopropoxy-9-meth-yl-6-oxa-3,11-diaza-2(4,2)-pyrimi-dina-1(1,4),4(1,3)-dibenzenacyclo-dodecaphan-12-one] | 0.101 to 1 | 0.011 to 0.1 | < 0.01 | 0.101 to 1
O=C1NCCCCOCc2cc(ccc2OCC2CCC(F)(F)C2)Nc2nccc(n2)-c2ccc1cc2[N+](=O)[O-] (stereo not shown) [Example 120, 4^4-((3,3-difluorocyclopentyl)meth-oxy)-1^2-nitro-6-oxa-3,11-diaza-2(4,2)-pyrimidina-1(1,4),4(1,3)-di-benzenacyclododecaphan-12-one] | 1 to 10 | 1 to 10 | 0.101 to 1 | > 10
